Legend:
Type in all cases: ADME, organism-based
Mus musculus [1] = test: In vivo biodistribution of radiolabeled [99mTc]-N4IPA in mice blood bearing S180 tumor cell line for 30 minutes; details: ccrf s-180, 0.5 h
Mus musculus [2] = test: In vivo biodistribution of radiolabeled [99mTc]-N4IPA in mice heart bearing S180 tumor cell line for 30 minutes; details: ccrf s-180, 0.5 h
Mus musculus [3] = test: In vivo biodistribution of radiolabeled [99mTc]N4IPA in mice tumor/blood bearing S180 tumor cell line for 2 hours; details: ccrf s-180, 2 h
Mus musculus [4] = test: In vivo biodistribution of radiolabeled [99mTc]-N4IPA in mice brain bearing S180 tumor cell line for 1 hour; details: ccrf s-180, 1 h
Mus musculus [5] = test: In vivo biodistribution of radiolabeled [99mTc]-N4IPA in mice liver bearing S180 tumor cell line for 30 minutes; details: ccrf s-180, 0.5 h
Mus musculus [6] = test: In vivo biodistribution of radiolabeled [99mTc]N4IPA in mice kidney bearing S180 tumor cell line for 2 hours; details: ccrf s-180, 2 h
Mus musculus [7] = test: In vivo biodistribution of radiolabeled [99mTc]-N4IPA in mice lung bearing S180 tumor cell line for 4 hours; details: ccrf s-180, 4 h
Mus musculus [8] = test: In vivo biodistribution of radiolabeled [99mTc]-N4IPA in mice spleen bearing S180 tumor cell line for 2 hours; details: ccrf s-180, 2 h
Mus musculus [9] = test: In vivo biodistribution of radiolabeled [99mTc]-N4IPA in mice kidney bearing S180 tumor cell line for 8 hours; details: ccrf s-180, 8 h
Mus musculus [10] = test: In vivo biodistribution of radiolabeled [99mTc]N4IPA in mice tumor/muscle bearing S180 tumor cell line for 8 hours; details: ccrf s-180, 8 h
Mus musculus [11] = test: In vivo biodistribution of radiolabeled [99mTc]N4IPA in mice tumor/lung bearing S180 tumor cell line for 2 hours; details: ccrf s-180, 2 h
Mus musculus [12] = test: In vivo biodistribution of radiolabeled [99mTc]N4IPA in mice brain bearing S180 tumor cell line for 4 hours; details: ccrf s-180, 4 h
Mus musculus [13] = test: In vivo biodistribution of radiolabeled [99mTc]-N4IPA in mice spleen bearing S180 tumor cell line for 30 minutes; details: ccrf s-180, 0.5 h
Mus musculus [14] = test: In vivo biodistribution of radiolabeled [99mTc]-N4IPA in mice muscle bearing S180 tumor cell line for 1 hour; details: ccrf s-180, 1 h
Mus musculus [15] = test: In vivo biodistribution of radiolabeled [99mTc]-N4IPA in mice tumor/heart bearing S180 tumor cell line for 30 minutes; details: ccrf s-180, 0.5 h
Mus musculus [16] = test: In vivo biodistribution of radiolabeled [99mTc]N4IPA in mice lung bearing S180 tumor cell line for 30 minutes; details: ccrf s-180, 0.5 h
Mus musculus [17] = test: In vivo biodistribution of radiolabeled [99mTc]-N4IPA in mice muscle bearing S180 tumor cell line for 30 minutes; details: ccrf s-180, 0.5 h
Mus musculus [18] = test: In vivo biodistribution of radiolabeled [99mTc]-N4IPA in mice tumor bearing S180 tumor cell line for 1 hour; details: ccrf s-180, 1 h
Mus musculus [19] = test: In vivo biodistribution of radiolabeled [99mTc]-N4IPA in mice tumor/muscle bearing S180 tumor cell line for 4 hours; details: ccrf s-180, 4 h
Mus musculus [20] = test: In vivo biodistribution of radiolabeled [99mTc]N4IPA in mice liver bearing S180 tumor cell line for 8 hours; details: ccrf s-180, 8 h
Mus musculus [21] = test: In vivo biodistribution of radiolabeled [99mTc]N4IPA in mice tumor/muscle bearing S180 tumor cell line for 1 hour; details: ccrf s-180, 1 h
Mus musculus [22] = test: In vivo biodistribution of radiolabeled [99mTc]N4IPA in mice lung bearing S180 tumor cell line for 8 hours; details: ccrf s-180, 8 h
Mus musculus [23] = test: In vivo biodistribution of radiolabeled [99mTc]-N4IPA in mice liver bearing S180 tumor cell line for 4 hours; details: ccrf s-180, 4 h
Mus musculus [24] = test: In vivo biodistribution of radiolabeled [99mTc]-N4IPA in mice lung bearing S180 tumor cell line for 2 hours; details: ccrf s-180, 2 h
Mus musculus [25] = test: In vivo biodistribution of radiolabeled [99mTc]N4IPA in mice tumor/blood bearing S180 tumor cell line for 1 hour; details: ccrf s-180, 1 h
Mus musculus [26] = test: In vivo biodistribution of radiolabeled [99mTc]N4IPA in mice tumor/blood bearing S180 tumor cell line for 4 hours; details: ccrf s-180, 4 h
Mus musculus [27] = test: In vivo biodistribution of radiolabeled [99mTc]-N4IPA in mice blood bearing S180 tumor cell line for 4 hours; details: ccrf s-180, 4 h
Mus musculus [28] = test: In vivo biodistribution of radiolabeled [99mTc]-N4IPA in mice tumor bearing S180 tumor cell line for 30 minutes; details: ccrf s-180, 0.5 h
Mus musculus [29] = test: In vivo biodistribution of radiolabeled [99mTc]-N4IPA in mice heart bearing S180 tumor cell line for 1 hour; details: ccrf s-180, 1 h
Mus musculus [30] = test: In vivo biodistribution of radiolabeled [99mTc]-N4IPA in mice tumor/liver bearing S180 tumor cell line for 8 hours; details: ccrf s-180, 8 h
Mus musculus [31] = test: In vivo biodistribution of radiolabeled [99mTc]-N4IPA in mice tumor/lung bearing S180 tumor cell line for 30 minutes; details: ccrf s-180, 0.5 h
Mus musculus [32] = test: In vivo biodistribution of radiolabeled [99mTc]-N4IPA in mice blood bearing S180 tumor cell line for 2 hours; details: ccrf s-180, 2 h
Mus musculus [33] = test: In vivo biodistribution of radiolabeled [99mTc]-N4IPA in mice blood bearing S180 tumor cell line for 8 hours; details: ccrf s-180, 8 h
Mus musculus [34] = test: In vivo biodistribution of radiolabeled [99mTc]N4IPA in mice muscle bearing S180 tumor cell line for 2 hours; details: ccrf s-180, 2 h
Mus musculus [35] = test: In vivo biodistribution of radiolabeled [99mTc]N4IPA in mice spleen bearing S180 tumor cell line for 1 hour; details: ccrf s-180, 1 h

With `N/C(CCn1cnc([N+](=O)[O-])c1)=N\O` the Biodistribution (Mus musculus [1]) was 0.7 % g-1, the Biodistribution (Mus musculus [2]) was 0.24 % g-1 and the Biodistribution (Mus musculus [3]) was 1.81 % g-1. For the same compound, the Biodistribution (Mus musculus [4]) was 0.04 % g-1, the Biodistribution (Mus musculus [5]) was 0.98 % g-1 and the Biodistribution (Mus musculus [6]) was 3.8 % g-1. The Biodistribution (Mus musculus [7]) was 0.12 % g-1, the Biodistribution (Mus musculus [8]) was 0.09 % g-1 and the Biodistribution (Mus musculus [9]) was 2.26 % g-1. For the same compound, the Biodistribution (Mus musculus [10]) was 8.83 % g-1, the Biodistribution (Mus musculus [11]) was 2.24 % g-1 and the Biodistribution (Mus musculus [12]) was 0.04 % g-1. For the same compound, the Biodistribution (Mus musculus [13]) was 0.13 % g-1, the Biodistribution (Mus musculus [14]) was 0.11 % g-1 and the Biodistribution (Mus musculus [15]) was 2.31 % g-1. The Biodistribution (Mus musculus [16]) was 0.39 % g-1, the Biodistribution (Mus musculus [17]) was 0.15 % g-1 and the Biodistribution (Mus musculus [18]) was 0.45 % g-1. The Biodistribution (Mus musculus [19]) was 8.6 % g-1, the Biodistribution (Mus musculus [20]) was 0.23 % g-1 and the Biodistribution (Mus musculus [21]) was 4.25 % g-1. For the same compound, the Biodistribution (Mus musculus [22]) was 0.1 % g-1, the Biodistribution (Mus musculus [23]) was 0.39 % g-1 and the Biodistribution (Mus musculus [24]) was 0.17 % g-1. The Biodistribution (Mus musculus [25]) was 1.19 % g-1, the Biodistribution (Mus musculus [26]) was 1.88 % g-1 and the Biodistribution (Mus musculus [27]) was 0.18 % g-1. It also gave a Biodistribution (Mus musculus [28]) of 0.55 % g-1, a Biodistribution (Mus musculus [29]) of 0.14 % g-1 and a Biodistribution (Mus musculus [30]) of 1.41 % g-1. For the same compound, the Biodistribution (Mus musculus [31]) was 1.42 % g-1, the Biodistribution (Mus musculus [32]) was 0.22 % g-1 and the Biodistribution (Mus musculus [33]) was 0.15 % g-1. The Biodistribution (Mus musculus [34]) was 0.05 % g-1 and the Biodistribution (Mus musculus [35]) was 0.1 % g-1.

Source: ChEMBL document CHEMBL1147434, “Synthesis and biological results of the technetium-99m-labeled 4-nitroimidazole for imaging tumor hypoxia” (Bioorg Med Chem Lett, 2004)
